Patent publication US8252843B2, “Compounds for the treatment of AIDS and other viral diseases” (Novaremed Limited, priority 2004, dated 2012)

Assays:
PHA-activated PBMCs [1] = experiment: Example 10: [3H]-thymidine proliferation of PHA-activated PBMCs, compound diluted in DMSO; assay type: cell-based, human; conditions: for inhibition relative to the controls: DMSO 0.25%; for inhibitory effect on PBMCs (summary of Examples 9 and 10): 100 and 50 μg/ml (61S), 100, 50 and 25 (74S)
Description: (§1) Human PBMCs were prepared from a blood bank and plated out at a concentration of 10^5 cells per well in a standard 96-well plate. PHA was added to each well at a concentration of 10 μg/ml together with AV 61S or PPG-7 (both in PBS) at concentrations of 50 μg/ml, 1 μg/ml, 100 ng/ml, 1 ng/ml and 100 pg/ml respectively for AV 61S and 50 μg/ml, 1 μg/ml and 10 ng/ml for PPG-7. The cells were then incubated for 7 days. [3H]-thymidine (NET-027 Thymidine [methyl-3H] from NEN 6.7 Ci/mmol Batch 3106446) was added to each well 48 hours after plating at a concentration of 1 mCi/well; a second dose was added to each well 18 hours before the end of the experiment. The cells were then harvested and counted for 1 min./sample.
Example 9 was repeated using separately compounds AV 61S, AV 61R and AV 74S and AV 74R. In each case the test compound was diluted in DMSO to a final concentration of 0.25%. A single dose of [3H]-thymidine (NET-027 Thymidine [methyl-3H] from NEN 6.7 Ci/mmol Batch 3106446) was added to each well 18 hours before the end of the experiment.

PBMC cells = experiment: Toxicity against PBMC cells by Alamar Blue reagent; conditions: 24 h and 48 h incubation
Description: Human PBMC cells were obtained from a blood bank and plated out on a standard 96-well plate at a concentration of 10^5 cells/well. PHA (10 μg/ml) and AV 61S (or AV 74S) at different dilutions in DMSO of 100 μg/ml, 50 μg/ml, 25 μg/ml, 10 μg/ml and 1 μg/ml were added simultaneously to each well. The cells were incubated for 24 hours.
After 24 hours, Alamar Blue reagent was added up to 10% of the total well volume.
The controls were medium only and CsA (1 mg/1 ml EtOH).
The contents of each well were then assayed 1 hour, 3 hours and 6 hours after addition of Alamar Blue by fluorescence in the manner known to those skilled in the art to determine the viability of the PBMCs.

PHA-activated PBMCs [2] = experiment: Example 9: [3H]-thymidine proliferation of PHA-activated PBMCs, compound in PBS; assay type: cell-based, human; conditions: 50 μg/ml, 7 days, PHA 10 μg/ml
Description: as §1
The controls were medium alone and CsA (1 mg in 1 ml ethanol).

| Substance | inhibition relative to the controls (PHA-activated PBMCs [1]; 50 μg/ml) | inhibition relative to the controls (PHA-activated PBMCs [1]; 100 μg/ml) | inhibitory effect on PBMCs (summary of Examples 9 and 10) (PHA-activated PBMCs [1]) | toxicity (Alamar Blue dyeing) (PBMC cells; 100 μg/ml) | toxicity (Alamar Blue dyeing) (PBMC cells; all concentrations 1-100 μg/ml except AV 74S at 100 μg/ml) | inhibition relative to the controls (PHA-activated PBMCs [2]) [%] |
| --- | --- | --- | --- | --- | --- | --- |
| (S) 2-N (3-O-(polypropyleneglycol)-1-propyl-4-hydroxybenzene)-3-phenylpropylamide [AV 74S] | 81% | 100% | inhibitory effect | same activity and toxicity pattern as Cyclosporine (CsA) | non-toxic effect | – |
| (S) 2-N (3-O-polypropyleneglycol)propylbenzene)-3-(4-hydroxyphenyl)propylamide [AV 61S] | about 49% | about 97% | inhibitory effect | – | – | 60 |
